Assay results reported in paper PMC9411704, “Assessment of the Carcinogenic Potential of Pretomanid in Transgenic Tg.rasH2 Mice” (International Journal of Toxicology, 2022).
Entries after “also recorded” stand apart in the source; their conditions may differ.

Assays:
Escherichia coli WP2uvrA = experiment: Bacterial reverse mutation (Ames) assay, plate incorporation
Method: (§1) Pretomanid and metabolite M50 were evaluated over a range of concentrations, with and without an added metabolic activation system, in five tester strains: Salmonella typhimurium histidine auxotrophs TA98, TA100, TA1535, and TA1537 [9] and the Escherichia coli tryptophan auxotroph WP2uvrA. S. typhimurium strains were received from Dr. Bruce Ames, Department of Biochemistry, University of California (Berkeley, CA). The E. coli strain was received from The National Collection of Industrial Bacteria, Torrey Research Station, Aberdeen, Scotland (United Kingdom). The metabolic activation system was a liver homogenate (S9) mix. The S9 component was prepared from male Sprague-Dawley rats that had been injected (intraperitoneally) with Aroclor^TM 1254 at 500 mg/kg, 5 days before sacrifice. The S9 mix was prepared immediately before use and contained 10% S9, 5 mM glucose-6-phosphate, 4 mM β-nicotinamide adenine dinucleotide phosphate, 8 mM MgCl2 and 33 mM KCl in a 100 mM phosphate buffer at pH 7.4. Pretomanid was tested at 0.05 to 5000 μg/plate. Metabolite M50 was tested at 78 to 2500 μg/plate. A negative (solvent) control culture and appropriate positive control cultures were included in each assay.
(§2) Bacteria were exposed to test materials by the plate incorporation method originally described by Ames et al and updated by Maron and Ames. Bottom agar was Vogel-Bonner minimal medium E [12] with 1.5% (w/v) agar, and the top Agar was 0.7% (w/v) agar and 0.5% (w/v) NaCl. After incubation, cultures were evaluated using a dissecting microscope for precipitation or cytotoxicity, and revertant colonies were counted. The mean numbers of revertant colonies in various cultures were compared to reach conclusions about assay validity and mutagenic potential. For the test article to be evaluated positive, it must cause a dose-related increase in the mean revertants per plate of at least one tester strain with a minimum of two increasing concentrations of test article.

[1] = Toxicokinetic assessment in wild-type CByB6F1 mice (Day 14); format: in vivo; settings: for Mouse M50 AUC0-24 as multiple of estimated human M50 AUC0-24: highest dose, human 200 mg/day
Method: TK animals were included for the vehicle control (n = 4 sex) and pretomanid-treated groups (n = 10 sex/group). The TK cohort animals were dosed by oral gavage once daily for 14 consecutive days.
Toxicokinetic blood samples (300 μL for males and 250 μL for females) were collected in K3EDTA tubes after 14 doses from the TK cohort via retro-orbital bleeding under 70% CO2/30% O2 anesthesia. On Day 14, control mice were bled once 2 hours after dosing. On Day 14 and 15, Pretomanid-treated mice were bled predose, 0.5, 1, 3, 6, and 24 hours post dose. TK animals were euthanized after their final blood collection.
Collected blood was stored on wet ice until the samples were processed to plasma. Blood samples were centrifuged at 4±2°C and 8000 g for 5 minutes. Plasma was snap frozen in liquid nitrogen and stored in a deep freezer (≤−60°C) within 60 minutes of bleeding the TK animals.
Pretomanid and the M50 metabolite were quantified in mouse plasma by liquid chromatography-tandem mass spectrometry (LC-MS/MS) after protein precipitation. Aliquots of 25 µL of plasma were spiked with internal standards (PA-824-d5 or morphine) and proteins were precipitated in 1% formic acid in acetonitrile. A partial supernatant from each sample was transferred to a clean plate and diluted in acetonitrile/water (40:60) for pretomanid and deionized water for M50. Supernatant was analyzed for pretomanid or M50 using validated LC-MS/MS methods with a linear range of 20 to 10,000 ng/mL for pretomanid and 10 to 5,000 ng/mL for M50 (methods validated at Alliance Pharma, Malvern PA).
Sample collection time and plasma concentration data were analyzed to derive TK parameters by standard model independent methods based on the mean plasma concentration-time data for each dose group. The TK analyses of the plasma concentration profiles were performed using non-compartmental analysis in Phoenix WinNonlin Professional 7.0 (Certara, L.P., St. Louis, MO, USA). Concentration values below the lower limit of quantitation were treated as zeros for analysis purposes.

[2] = test system: Salmonella typhimurium TA100; experiment: Bacterial reverse mutation (Ames) assay, plate incorporation; format: cell-based
Method: as §1, §2

[3] = test system: Salmonella typhimurium TA98; experiment: as above; format: cell-based
Method: as §1, §2

[4] = test system: Salmonella typhimurium TA1535; experiment: as above; format: cell-based
Method: as §1, §2

[5] = test system: Salmonella typhimurium TA1537; experiment: as above; format: cell-based
Method: as §1, §2

[6] = test system: Salmonella typhimurium TA98, TA100, TA1535, TA1537 and Escherichia coli WP2uvrA; experiment: Bacterial reverse mutation (Ames) assay, overall over five tester strains; format: cell-based; settings: up to 2500 μg/plate
Method: as §1, §2

O=[N+]([O-])c1cn2c(n1)OC[C@@H](O)C2 [M50]
Mean Number of Revertants/Plate (Escherichia coli WP2uvrA; WP2uvrA +S9, 78 μg/plate): 18 Revertants/Plate | Mean Number of Revertants/Plate (Escherichia coli WP2uvrA; WP2uvrA +S9, 156 μg/plate): 17 Revertants/Plate | Mean Number of Revertants/Plate (Escherichia coli WP2uvrA; WP2uvrA +S9, 313 μg/plate): 23 Revertants/Plate | Mean Number of Revertants/Plate (Escherichia coli WP2uvrA; WP2uvrA +S9, 625 μg/plate): 48 Revertants/Plate | Mean Number of Revertants/Plate (Escherichia coli WP2uvrA; WP2uvrA +S9, 1250 μg/plate): 50 Revertants/Plate | Mean Number of Revertants/Plate (Escherichia coli WP2uvrA; WP2uvrA +S9, 2500 μg/plate): 50 Revertants/Plate | Mean Number of Revertants/Plate (Escherichia coli WP2uvrA; WP2uvrA −S9, 78 μg/plate): 18 Revertants/Plate | Mean Number of Revertants/Plate (Escherichia coli WP2uvrA; WP2uvrA −S9, 156 μg/plate): 24 Revertants/Plate | Mean Number of Revertants/Plate (Escherichia coli WP2uvrA; WP2uvrA −S9, 313 μg/plate): 26 Revertants/Plate | Mean Number of Revertants/Plate (Escherichia coli WP2uvrA; WP2uvrA −S9, 625 μg/plate): 29 Revertants/Plate | Mean Number of Revertants/Plate (Escherichia coli WP2uvrA; WP2uvrA −S9, 1250 μg/plate): 49 Revertants/Plate | Mean Number of Revertants/Plate (Escherichia coli WP2uvrA; WP2uvrA −S9, 2500 μg/plate): 71 Revertants/Plate | Change in revertant colonies (Escherichia coli WP2uvrA; WP2uvrA, presence and absence of S9): significant increases | Exposure to M50 metabolite relative to pretomanid ([1]; all dose levels, both sexes): less than 10% | AUC(0-t) ([1]; female, CByB6F1 (wild-type), mouse, plasma, oral, 80 mg/kg/day, females, highest dose in the carcinogenicity study, read-out: Mean M50 AUC0-24): 10200 ng·h/mL | Mouse M50 AUC0-24 as multiple of estimated human M50 AUC0-24 ([1]; females): approximately 3 X | Mean M50 AUC0-24 ([1]; males, highest dose in the carcinogenicity study): 4.6 µg·h/mL | Mouse M50 AUC0-24 as multiple of estimated human M50 AUC0-24 ([1]; males): approximately 1.5 X | Mean Number of Revertants/Plate ([2]; TA100 +S9, 78 μg/plate): 132 Revertants/Plate | Mean Number of Revertants/Plate ([2]; TA100 +S9, 156 μg/plate): 125 Revertants/Plate | Mean Number of Revertants/Plate ([2]; TA100 +S9, 313 μg/plate): 252 Revertants/Plate | Mean Number of Revertants/Plate ([2]; TA100 +S9, 625 μg/plate): 312 Revertants/Plate | Mean Number of Revertants/Plate ([2]; TA100 +S9, 1250 μg/plate): 666 Revertants/Plate | Mean Number of Revertants/Plate ([2]; TA100 +S9, 2500 μg/plate): 758 Revertants/Plate | Change in revertant colonies ([2]; TA100, presence and absence of S9): significant increases | Mean Number of Revertants/Plate ([2]; TA100 −S9, 78 μg/plate): 120 Revertants/Plate | Mean Number of Revertants/Plate ([2]; TA100 −S9, 156 μg/plate): 135 Revertants/Plate | Mean Number of Revertants/Plate ([2]; TA100 −S9, 313 μg/plate): 203 Revertants/Plate | Mean Number of Revertants/Plate ([2]; TA100 −S9, 625 μg/plate): 294 Revertants/Plate | Mean Number of Revertants/Plate ([2]; TA100 −S9, 1250 μg/plate): 588 Revertants/Plate | Mean Number of Revertants/Plate ([2]; TA100 −S9, 2500 μg/plate): 868 Revertants/Plate | Mean Number of Revertants/Plate ([3]; TA98 +S9, 78 μg/plate): 18 Revertants/Plate | Mean Number of Revertants/Plate ([3]; TA98 +S9, 156 μg/plate): 19 Revertants/Plate | Mean Number of Revertants/Plate ([3]; TA98 +S9, 313 μg/plate): 22 Revertants/Plate | Mean Number of Revertants/Plate ([3]; TA98 +S9, 625 μg/plate): 25 Revertants/Plate | Mean Number of Revertants/Plate ([3]; TA98 +S9, 1250 μg/plate): 24 Revertants/Plate | Mean Number of Revertants/Plate ([3]; TA98 +S9, 2500 μg/plate): 38 Revertants/Plate | Change in revertant colonies ([3]; TA98, presence of S9): significant increases | Mean Number of Revertants/Plate ([3]; TA98 −S9, 78 μg/plate): 13 Revertants/Plate | Mean Number of Revertants/Plate ([3]; TA98 −S9, 156 μg/plate): 16 Revertants/Plate | Mean Number of Revertants/Plate ([3]; TA98 −S9, 313 μg/plate): 14 Revertants/Plate | Mean Number of Revertants/Plate ([3]; TA98 −S9, 625 μg/plate): 17 Revertants/Plate | Mean Number of Revertants/Plate ([3]; TA98 −S9, 1250 μg/plate): 21 Revertants/Plate | Mean Number of Revertants/Plate ([3]; TA98 −S9, 2500 μg/plate): 33 Revertants/Plate | Mean Number of Revertants/Plate ([4]; TA1535 +S9, 78 μg/plate): 12 Revertants/Plate | Mean Number of Revertants/Plate ([4]; TA1535 +S9, 156 μg/plate): 15 Revertants/Plate | Mean Number of Revertants/Plate ([4]; TA1535 +S9, 313 μg/plate): 31 Revertants/Plate | Mean Number of Revertants/Plate ([4]; TA1535 +S9, 625 μg/plate): 42 Revertants/Plate | Mean Number of Revertants/Plate ([4]; TA1535 +S9, 1250 μg/plate): 67 Revertants/Plate | Mean Number of Revertants/Plate ([4]; TA1535 +S9, 2500 μg/plate): 81 Revertants/Plate | Change in revertant colonies ([4]; TA1535, presence and absence of S9): significant increases | Mean Number of Revertants/Plate ([4]; TA1535 −S9, 78 μg/plate): 20 Revertants/Plate | Mean Number of Revertants/Plate ([4]; TA1535 −S9, 156 μg/plate): 16 Revertants/Plate | Mean Number of Revertants/Plate ([4]; TA1535 −S9, 313 μg/plate): 19 Revertants/Plate | Mean Number of Revertants/Plate ([4]; TA1535 −S9, 625 μg/plate): 24 Revertants/Plate | Mean Number of Revertants/Plate ([4]; TA1535 −S9, 1250 μg/plate): 43 Revertants/Plate | Mean Number of Revertants/Plate ([4]; TA1535 −S9, 2500 μg/plate): 60 Revertants/Plate | Mean Number of Revertants/Plate ([5]; TA1537 +S9, 78 μg/plate): 9 Revertants/Plate | Mean Number of Revertants/Plate ([5]; TA1537 +S9, 156 μg/plate): 12 Revertants/Plate | Mean Number of Revertants/Plate ([5]; TA1537 +S9, 313 μg/plate): 8 Revertants/Plate | Mean Number of Revertants/Plate ([5]; TA1537 +S9, 625 μg/plate): 14 Revertants/Plate | Mean Number of Revertants/Plate ([5]; TA1537 +S9, 1250 μg/plate): 20 Revertants/Plate | Mean Number of Revertants/Plate ([5]; TA1537 +S9, 2500 μg/plate): 11 Revertants/Plate | Change in revertant colonies ([5]; TA1537, absence of S9): significant increases | Mean Number of Revertants/Plate ([5]; TA1537 −S9, 78 μg/plate): 8 Revertants/Plate | Mean Number of Revertants/Plate ([5]; TA1537 −S9, 156 μg/plate): 13 Revertants/Plate | Mean Number of Revertants/Plate ([5]; TA1537 −S9, 313 μg/plate): 7 Revertants/Plate | Mean Number of Revertants/Plate ([5]; TA1537 −S9, 625 μg/plate): 13 Revertants/Plate | Mean Number of Revertants/Plate ([5]; TA1537 −S9, 1250 μg/plate): 10 Revertants/Plate | Mean Number of Revertants/Plate ([5]; TA1537 −S9, 2500 μg/plate): 18 Revertants/Plate | Precipitate or cytotoxicity in the Ames assay ([6]; single non-GLP assay): no precipitate or cytotoxicity at any concentration | Mutagenic potential ([6]; with and without S9, non-GLP): genotoxic; also recorded: positive
